pIC50: −log10 of the molar value. Where a name gives a salt, the structure may show the parent alone. Read-outs that look alike come from different tables or passages of the source.
Tested on: Plasmodium falciparum: 3D7 strain
Test: P. falciparum 3D7 asexual blood stage assay (SYBR green readout)
Type: cell-based
Details: Plasmodium falciparum, P. falciparum 3D7 in human erythrocytes, 72 h incubation, SYBR green fluorescence
Procedure, shortened: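 3D7-infected erythrocytes (5% haematocrit, 0.5% parasitaemia) were exposed 72 h at 37 °C under 1% O2/3% CO2 to a 20-point titration (50,000-15 nM final, 0.5% DMSO). Parasite DNA was read by SYBR green fluorescence after overnight lysis. Percent inhibition was set against mefloquine and DMSO, and EC50 came from a biphasic two-site fit.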

| Compound | pIC50 (3D7, Erythrocyte, 72 h) | pIC50 (Erythrocyte, read-out: IC50) |
| --- | --- | --- |
| C[C@@H]1C[C@H](N2C(=N)N[C@](C)(c3cccc(-c4ccc(OC(F)F)nc4)c3Cl)CC2=O)CCS1(=O)=O (relative stereo) [Example 70, (6S)-6-{2-Chloro-3-[6-(difluoro-methoxy)pyridin-3-yl]phenyl}-2-imino-6-methyl-3-[(2R*,4R*)-2-methyl-1,1-dioxothian-4-yl]-hexahydropyrimidin-4-one hydrochloride] | 7.07 |  |
| C[C@H]1C[C@@H](N2C(=N)N[C@](C)(c3cccc(-c4ccccc4Cl)c3Cl)CC2=O)CCO1 [Example 46, (6S)-6-[2-Chloro-3-(2-chloro-phenyl)phenyl]-2-imino-6-methyl-3-[(2S,4S)-2-methyltetrahydro-pyran-4-yl]hexahydropyrimidin-4-one trifluoroacetic acid salt] | 6.98 |  |
| C[C@H]1C[C@@H](N2C(=N)N[C@](C)(c3cccc(-c4ccc(NS(C)(=O)=O)cc4)c3Cl)CC2=O)CCC1(F)F [Example 14, N-[4-(2-Chloro-3-{(4S)-1-[(1S,3S)-4,4-difluoro-3-methylcyclohexyl]-2-imino-4-methyl-6-oxohexahydro-pyrimidin-4-yl}phenyl)phenyl]-methanesulfonamide trifluoroacetic acid salt] | 7.01 |  |
| C[C@H]1C[C@@H](N2C(=N)N[C@](C)(c3cccc(-c4cccc(S(C)(=O)=O)c4)c3Cl)CC2=O)CCO1 [Example 4, (6S)-6-[2-Chloro-3-(3-methyl-sulfonylphenyl)phenyl]-2-imino-6-methyl-3-[(2S,4S)-2-methyl-tetrahydropyran-4-yl]hexahydro-pyrimidin-4-one hydrochloride] | 7.77 |  |
| C[C@H]1C[C@@H](N2C(=N)N[C@](C)(c3cccc(-c4cccc(C(O)C(F)F)c4)c3Cl)CC2=O)CCO1 (single isomer, unassigned) [Example 25, (6S)-6-(2-Chloro-3-{3-[(1R*)-2,2-difluoro-1-hydroxyethyl]phenyl}-phenyl)-2-imino-6-methyl-3-[(2S,4S)-2-methyltetrahydropyran-4-yl]hexahydropyrimidin-4-one hydrochloride] | 7.42 |  |
| CN1CCC(N2C(=N)N[C@](C)(c3cccc(-c4cc(Cl)ccc4Cl)c3Cl)CC2=O)CC1 [Example 92, (6S)-6-[2-Chloro-3-(2,5-dichloro-phenyl)phenyl]-2-imino-6-methyl-3-(1-methylpiperidin-4-yl)-hexahydropyrimidin-4-one] |  | 7.30 |
| C[C@H]1C[C@@H](N2C(=N)N[C@](C)(c3cccc(-c4ccc(N=S(C)(C)=O)cc4F)c3Cl)CC2=O)CCC1(F)F [Example 18, (6S)-6-[2-Chloro-3-(4-{[(dimethyl)-(oxo)-λ^6-sulfanylidene]amino}-2-fluorophenyl)phenyl]-3-[(1S,3S)-4,4-difluoro-3-methylcyclohexyl]-2-imino-6-methylhexahydro-pyrimidin-4-one hydrochloride] | 6.53 |  |
| C[C@@]1(c2cccc(-c3cccc(Cl)c3)c2Cl)CC(=O)N([C@@H]2CCC(F)(F)[C@H](O)C2)C(=N)N1 (relative stereo) [Example 22, (S)-6-[2,3′-Dichloro(1,1′-biphenyl)-3-yl]-3-[(1R*,3R*)-4,4-difluoro-3-hydroxycyclohexyl]-2-imino-6-methyltetrahydropyrimidin-4(1H)-one trifluoroacetic acid salt] | 6.81 |  |
| CO[C@H]1C[C@@H](N2C(=N)N[C@](C)(c3cccc(-c4ccc(N=S(C)(C)=O)cc4F)c3Cl)CC2=O)CCC1(F)F (relative stereo) [Example 12, (6S)-6-[2-Chloro-3-(4-{[(dimethyl)-(oxo)-λ^6-sulfanylidene]amino}-2-fluorophenyl)phenyl]-3-[(1S*,3S*)-4,4-difluoro-3-methoxy-cyclohexyl]-2-imino-6-methyl-hexahydropyrimidin-4-one hydrochloride] | 6.44 |  |
| C[C@@]1(c2cccc(-c3cc(C4CC4)no3)c2Cl)CC(=O)N([C@@H]2CCC(F)(F)[C@H](O)C2)C(=N)N1 (relative stereo) [Example 86, (6S)-6-[2-Chloro-3-(3-cyclopropyl-isoxazol-5-yl)phenyl]-3-[(1R*,3R*)-4,4-difluoro-3-hydroxy-cyclohexyl]-2-imino-6-methyl-hexahydropyrimidin-4-one hydrochloride] | 6.54 |  |
| C[C@@]1(c2cccc(-c3cccc(Cl)c3)c2Cl)CC(=O)N([C@H]2CCOC[C@@H]2O)C(=N)N1 (relative stereo) [Example 95, (6S)-6-[2-Chloro-3-(3-chloro-phenyl)phenyl]-3-[(3R*,4S*)-3-hydroxytetrahydropyran-4-yl]-2-imino-6-methylhexahydro-pyrimidin-4-one hydrochloride] | 6.49 |  |
| C[C@@H]1C[C@H](N2C(=N)N[C@](C)(c3cccc(-c4ccc(F)cc4F)c3Cl)CC2=O)CCN1 (relative stereo) [Example 103, (6S)-6-[2-Chloro-3-(2,4-difluoro-phenyl)phenyl]-2-imino-6-methyl-3-[(2R*,4R*)-2-methylpiperidin-4-yl]hexahydropyrimidin-4-one hydrochloride] | 6.13 |  |
| C[C@H]1C[C@@H](N2C(=N)N[C@](C)(c3cccc(-c4cn(-c5ccncc5)nn4)c3Cl)CC2=O)CCO1 [Example 119, (6S)-6-{2-Chloro-3-[1-(pyridin-4-yl)-1,2,3-triazol-4-yl]phenyl}-2-imino-6-methyl-3-[(2S,4S)-2-methyltetrahydropyran-4-yl]-hexahydropyrimidin-4-one trifluoroacetic acid salt] | 6.53 |  |
| C[C@@H]1C[C@H](N2C(=N)N[C@](C)(c3cccc(-c4cccc(Cl)c4)c3Cl)CC2=O)CC[C@@H]1O (relative stereo) [Example 7, (6S)-6-[2-Chloro-3-(3-chloro-phenyl)phenyl]-3-[(1R*,3R*,4S*)-4-hydroxy-3-methylcyclohexyl]-2-imino-6-methylhexahydro-pyrimidin-4-one hydrochloride] | 6.14 |  |
| CO[C@H]1C[C@@H](N2C(=N)N[C@](C)(c3cccc(-c4ccc(S(C)(=O)=O)cc4F)c3Cl)CC2=O)CCC1(F)F (relative stereo) [Example 10, (6S)-6-{2-Chloro-3-[2-fluoro-4-(methylsulfonyl)phenyl]phenyl}-3-[(1S*,3S*)-4,4-difluoro-3-methoxy-cyclohexyl]-2-imino-6-methyl-hexahydropyrimidin-4-one hydrochloride] | 8.22 |  |
| C[C@H]1C[C@@H](N2C(=N)N[C@](C)(c3cccc(-c4ccc(C#N)cc4)c3Cl)CC2=O)CCO1 [Example 60, 4-(2-Chloro-3-{(4S)-2-imino-4-methyl-1-[(2S,4S)-2-methyl-tetrahydropyran-4-yl]-6-oxo-hexahydropyrimidin-4-yl}phenyl)-benzonitrile trifluoroacetic acid salt] | 6.53 |  |
| C[C@H]1C[C@@H](N2C(=N)N[C@](C)(c3cccc(-c4ccncc4Cl)c3Cl)CC2=O)CCO1 [Example 57, (6S)-6-[2-Chloro-3-(3-chloro-pyridin-4-yl)phenyl]-2-imino-6-methyl-3-[(2S,4S)-2-methyl-tetrahydropyran-4-yl]hexahydro-pyrimidin-4-one trifluoroacetic acid salt] | 7.21 |  |
| C[C@H]1C[C@@H](N2C(=N)N[C@](C)(c3cccc(-c4cccc(F)c4F)c3Cl)CC2=O)CCO1 [Example 50, (6S)-6-[2-Chloro-3-(2,3-difluoro-phenyl)phenyl]-2-imino-6-methyl-3-[(2S,4S)-2-methyltetrahydro-pyran-4-yl]hexahydropyrimidin-4-one trifluoroacetic acid salt] | 7.08 |  |
| C[C@@H]1C[C@@H](N2C(=N)N[C@](C)(c3cccc(-c4ccc(OC(F)(F)F)nc4)c3Cl)CC2=O)CCS1(=O)=O (relative stereo) [Example 81, (6S)-6-{2-Chloro-3-[6-(trifluoro-methoxy)pyridin-3-yl]phenyl}-2-imino-6-methyl-3-[(2R*,4S*)-2-methyl-1,1-dioxothian-4-yl]-hexahydropyrimidin-4-one hydrochloride] | 6.38 |  |
| C[C@H]1C[C@H](N2C(=N)N[C@](C)(c3cccc(-c4ccc(Cl)cn4)c3Cl)CC2=O)CCS1(=O)=O (relative stereo) [Example 76, (6S)-6-[2-Chloro-3-(5-chloro-pyridin-2-yl)phenyl]-2-imino-6-methyl-3-[(2S*,4R*)-2-methyl-1,1-dioxothian-4-yl]hexahydro-pyrimidin-4-one hydrochloride] | 5.61 |  |
| COc1ccc(-c2cccc([C@]3(C)CC(=O)N([C@H]4CCO[C@@H](C)C4)C(=N)N3)c2Cl)cn1 [Example 43, (6S)-6-[2-Chloro-3-(6-methoxy-pyridin-3-yl)phenyl]-2-imino-6-methyl-3-[(2S,4S)-2-methyl-tetrahydropyran-4-yl]hexahydro-pyrimidin-4-one trifluoroacetic acid salt] | 7.03 |  |
| C[C@H]1C[C@@H](N2C(=N)N[C@](C)(c3cccc(-c4cncnc4)c3Cl)CC2=O)CCO1 [Example 41, (6S)-6-[2-Chloro-3-(pyrimidin-5-yl)phenyl]-2-imino-6-methyl-3-[(2S,4S)-2-methyltetrahydropyran-4-yl]hexahydropyrimidin-4-one trifluoroacetic acid salt] | 6.84 |  |
| C[C@H]1C[C@@H](N2C(=N)N[C@](C)(c3cccc(-c4cn(-c5cc(F)c(F)cc5F)nn4)c3Cl)CC2=O)CCO1 [Example 109, (6S)-6-{2-Chloro-3-[1-(2,4,5-trifluorophenyl)-1,2,3-triazol-4-yl]-phenyl}-2-imino-6-methyl-3-[(2S,4S)-2-methyltetrahydropyran-4-yl]hexahydropyrimidin-4-one hydrochloride] | 6.77 |  |
| C[C@H]1C[C@@H](N2C(=N)N[C@](C)(c3cccc(-c4cccc5cnn(C)c45)c3Cl)CC2=O)CCO1 [Example 56, (6S)-6-[2-Chloro-3-(1-methyl-indazol-7-yl)phenyl]-2-imino-6-methyl-3-[(2S,4S)-2-methyl-tetrahydropyran-4-yl]hexahydro-pyrimidin-4-one trifluoroacetic acid salt] | 7.37 |  |
